For 29 compounds, IC50 results are on record in patent US8178668B2, “2-aminopyridine kinase inhibitors” (OSI Pharmaceuticals, LLC, priority 2008, dated 2012).

One assay concerns the target RON (human) (Homo sapiens, UniProt Q04912). The assay is described as follows: RON kinase AlphaScreen assay (Km of ATP). The format is biochemical. Particulars: ATP at Km; at least duplicate experiments. Put shortly:
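AlphaScreen with PT66 donor/acceptor beads, read after 1 h, detected phosphorylation of biotinylated poly(Glu,Tyr) by human RON. Enzyme-started reactions ran 30 min at room temperature with ATP at Km. Buffer was HEPES pH 7.4 with MgCl2, glycerol, vanadate and 1% DMSO.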

The target of the next assay is MET (human) (Homo sapiens, UniProt P08581). Kind of assay: MET kinase AlphaScreen assay (Km of ATP). The format is biochemical. The note with it: ATP at Km; at least duplicate experiments. A digest of the protocol: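 AlphaScreen detection with PT66 beads (1 h) follows a 60 min room-temperature MET reaction. Substrate is 200 ng/μL biotinylated poly(Glu,Tyr), with ATP set at an enzyme-optimized concentration. Buffer is HEPES pH 7.4 with MgCl2, MnCl2 and 0.334 mM vanadate, compounds at 1% DMSO.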
MET (human), sequence (P08581 25-1390): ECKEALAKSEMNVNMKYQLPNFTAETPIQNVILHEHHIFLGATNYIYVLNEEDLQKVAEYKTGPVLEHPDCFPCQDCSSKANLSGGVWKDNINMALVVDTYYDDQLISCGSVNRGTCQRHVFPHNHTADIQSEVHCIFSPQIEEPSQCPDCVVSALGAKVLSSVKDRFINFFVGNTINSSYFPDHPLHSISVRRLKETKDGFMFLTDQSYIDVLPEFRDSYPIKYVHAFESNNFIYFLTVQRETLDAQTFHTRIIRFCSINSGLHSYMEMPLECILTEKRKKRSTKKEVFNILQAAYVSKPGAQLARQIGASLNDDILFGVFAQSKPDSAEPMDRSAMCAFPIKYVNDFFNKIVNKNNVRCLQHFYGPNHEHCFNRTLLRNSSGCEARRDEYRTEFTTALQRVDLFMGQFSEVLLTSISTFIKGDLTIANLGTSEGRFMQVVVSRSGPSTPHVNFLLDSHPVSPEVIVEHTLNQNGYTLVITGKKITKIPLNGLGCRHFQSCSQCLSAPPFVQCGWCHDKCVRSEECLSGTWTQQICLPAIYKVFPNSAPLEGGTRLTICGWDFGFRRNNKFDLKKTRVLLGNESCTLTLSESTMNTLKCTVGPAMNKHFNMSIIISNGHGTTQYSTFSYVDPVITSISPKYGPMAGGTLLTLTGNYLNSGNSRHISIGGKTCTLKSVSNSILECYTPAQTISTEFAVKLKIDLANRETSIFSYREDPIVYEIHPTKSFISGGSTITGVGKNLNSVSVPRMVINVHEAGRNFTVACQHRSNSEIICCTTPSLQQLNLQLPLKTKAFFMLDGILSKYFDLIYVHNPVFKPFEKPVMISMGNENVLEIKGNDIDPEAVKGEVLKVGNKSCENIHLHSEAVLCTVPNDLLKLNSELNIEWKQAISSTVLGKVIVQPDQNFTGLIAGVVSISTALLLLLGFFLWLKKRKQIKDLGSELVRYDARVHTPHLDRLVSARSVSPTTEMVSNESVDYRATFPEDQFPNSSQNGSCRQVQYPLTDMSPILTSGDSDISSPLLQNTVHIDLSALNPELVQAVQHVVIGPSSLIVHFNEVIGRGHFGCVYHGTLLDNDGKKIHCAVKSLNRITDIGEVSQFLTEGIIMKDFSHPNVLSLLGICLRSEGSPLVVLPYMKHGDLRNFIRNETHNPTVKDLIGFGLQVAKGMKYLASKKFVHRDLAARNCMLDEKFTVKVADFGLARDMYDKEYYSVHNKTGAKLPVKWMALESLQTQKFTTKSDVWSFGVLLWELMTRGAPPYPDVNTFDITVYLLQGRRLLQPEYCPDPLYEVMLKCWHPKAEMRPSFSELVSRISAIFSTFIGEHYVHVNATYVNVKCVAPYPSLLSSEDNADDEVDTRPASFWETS

RON (human), sequence (Q04912 25-1400): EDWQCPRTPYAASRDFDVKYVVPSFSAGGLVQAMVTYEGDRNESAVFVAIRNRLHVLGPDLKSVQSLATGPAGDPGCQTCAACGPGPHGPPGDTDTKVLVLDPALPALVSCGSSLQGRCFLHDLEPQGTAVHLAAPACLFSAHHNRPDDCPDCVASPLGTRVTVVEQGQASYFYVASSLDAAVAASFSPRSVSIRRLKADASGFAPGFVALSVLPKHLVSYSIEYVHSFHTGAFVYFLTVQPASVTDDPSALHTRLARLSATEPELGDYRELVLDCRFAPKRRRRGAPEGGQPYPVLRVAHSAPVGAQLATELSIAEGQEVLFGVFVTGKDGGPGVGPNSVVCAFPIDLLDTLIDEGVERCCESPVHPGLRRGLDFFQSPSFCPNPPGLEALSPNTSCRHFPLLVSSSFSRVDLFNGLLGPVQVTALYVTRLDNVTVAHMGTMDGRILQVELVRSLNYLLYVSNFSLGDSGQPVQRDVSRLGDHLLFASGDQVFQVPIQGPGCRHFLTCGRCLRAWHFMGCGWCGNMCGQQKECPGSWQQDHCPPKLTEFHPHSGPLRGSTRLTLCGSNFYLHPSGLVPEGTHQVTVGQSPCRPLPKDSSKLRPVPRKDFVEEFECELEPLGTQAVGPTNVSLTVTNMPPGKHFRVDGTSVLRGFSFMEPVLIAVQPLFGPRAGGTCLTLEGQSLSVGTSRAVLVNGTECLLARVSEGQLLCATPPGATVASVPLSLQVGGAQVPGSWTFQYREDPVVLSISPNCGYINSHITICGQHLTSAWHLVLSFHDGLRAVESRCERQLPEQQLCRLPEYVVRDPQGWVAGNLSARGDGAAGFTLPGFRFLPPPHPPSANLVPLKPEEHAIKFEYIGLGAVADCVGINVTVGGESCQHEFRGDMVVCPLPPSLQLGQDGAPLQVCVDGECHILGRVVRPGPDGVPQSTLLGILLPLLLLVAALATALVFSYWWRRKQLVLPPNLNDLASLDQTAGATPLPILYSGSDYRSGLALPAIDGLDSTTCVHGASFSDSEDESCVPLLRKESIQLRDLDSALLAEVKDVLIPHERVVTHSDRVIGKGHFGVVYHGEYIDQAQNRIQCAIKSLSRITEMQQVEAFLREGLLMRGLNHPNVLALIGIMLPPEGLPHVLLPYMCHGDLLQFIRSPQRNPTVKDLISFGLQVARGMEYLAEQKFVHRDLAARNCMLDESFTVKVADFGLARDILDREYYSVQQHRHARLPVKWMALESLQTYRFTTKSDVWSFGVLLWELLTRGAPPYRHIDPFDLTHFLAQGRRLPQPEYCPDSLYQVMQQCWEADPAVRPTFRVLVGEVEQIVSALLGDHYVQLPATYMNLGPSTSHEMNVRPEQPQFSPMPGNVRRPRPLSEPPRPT

With `CN(C)C(=O)Cn1cc(-c2cnc(N)c(-c3nc4ccccc4s3)c2)cn1` [Example 140, 2-[4-(6-Amino-5-benzothiazol-2-ylpyridin-3-yl)-pyrazol-1-yl]-N,N-dimethylacetamide], the IC50 against RON (human) and on MET (human) was 1000 to 20000 nM throughout.
In the case of `Nc1ncc(-c2cnn(CC(=O)N3CCCCC3)c2)cc1-c1nc2ccccc2s1` [Example 141, 2-[4-(6-Amino-5-benzothiazol-2-ylpyridin-3-yl)-pyrazol-1-yl]-1-piperidin-1-ylethanone], the concentration for half-maximal inhibition (IC50) on RON (human) and against MET (human) was 1000 to 20000 nM each time.
For `CC(C(=O)N1CCOCC1)n1cc(-c2cnc(N)c(-c3nc4ccccc4s3)c2)cn1` (stereo not shown) [Example 142, 2-[4-(6-Amino-5-benzothiazol-2-ylpyridin-3-yl)-pyrazol-1-yl]-1-morpholin-4-ylpropan-1-one], the IC50 against RON (human) and against MET (human) was 1000 to 20000 nM throughout.
Turning to `COCCN(CCOC)C(=O)C(C)n1cc(-c2cnc(N)c(-c3nc4ccccc4s3)c2)cn1` (stereo not shown) [Example 143, 2-[4-(6-Amino-5-benzothiazol-2-ylpyridin-3-yl)-pyrazol-1-yl]-N,N-bis-(2-methoxyethyl)-propionamide], the IC50 against RON (human) and against MET (human) was 1000 to 20000 nM throughout.
`CNC(=O)C(C)n1cc(-c2cnc(N)c(-c3nc4ccccc4s3)c2)cn1` (stereo not shown) [Example 144, 2-[4-(6-Amino-5-benzothiazol-2-ylpyridin-3-yl)-pyrazol-1-yl]-N-methylpropionamide]: the IC50 on RON (human) and against MET (human) was 1000 to 20000 nM throughout.
In the case of `CC(C(N)=O)n1cc(-c2cnc(N)c(-c3nc4ccccc4s3)c2)cn1` (stereo not shown) [Example 145, 2-[4-(6-Amino-5-benzothiazol-2-ylpyridin-3-yl)-pyrazol-1-yl]-propionamide], the figures for the IC50 at RON (human) and at MET (human) were 1000 to 20000 nM and 100 to 1000 nM, respectively.
The matching figures for `COCCNC(=O)C(C)n1cc(-c2cnc(N)c(-c3nc4ccccc4s3)c2)cn1` (stereo not shown) [Example 146, 2-[4-(6-Amino-5-benzothiazol-2-ylpyridin-3-yl)-pyrazol-1-yl]-N-(2-methoxyethyl)-propionamide]: 1000 to 20000 nM and 1000 to 20000 nM.
Regarding `CC(C(=O)NCCO)n1cc(-c2cnc(N)c(-c3nc4ccccc4s3)c2)cn1` (stereo not shown) [Example 147, 2-[4-(6-Amino-5-benzothiazol-2-ylpyridin-3-yl)-pyrazol-1-yl]-N-(2-hydroxyethyl)-propionamide], the IC50 against RON (human) and at MET (human) was 1000 to 20000 nM throughout.
Turning to `CC(C(=O)N(C)C)n1cc(-c2cnc(N)c(-c3nc4ccccc4s3)c2)cn1` (stereo not shown) [Example 148, 2-[4-(6-Amino-5-benzothiazol-2-ylpyridin-3-yl)-pyrazol-1-yl]-N,N-dimethylpropionamide], the concentration for half-maximal inhibition (IC50) on RON (human) and at MET (human) was 1000 to 20000 nM each time.
In the case of `CC(C(=O)N1CCC(O)C1)n1cc(-c2cnc(N)c(-c3nc4ccccc4s3)c2)cn1` (stereo not shown) [Example 149, 2-[4-(6-Amino-5-benzothiazol-2-ylpyridin-3-yl)-pyrazol-1-yl]-1-(3-hydroxypyrrolidin-1-yl)-propan-1-one], the concentration for half-maximal inhibition (IC50) at RON (human) and on MET (human) was 1000 to 20000 nM throughout.
For the compound `CC(C(=O)N1CCC(O)CC1)n1cc(-c2cnc(N)c(-c3nc4ccccc4s3)c2)cn1` (stereo not shown) [Example 150, 2-[4-(6-Amino-5-benzothiazol-2-ylpyridin-3-yl)-pyrazol-1-yl]-1-(4-hydroxypiperidin-1-yl)-propan-1-one], the concentration for half-maximal inhibition (IC50) against RON (human) and against MET (human) was 100 to 1000 nM in each case.
Take `CC(C(=O)N1CCCC1)n1cc(-c2cnc(N)c(-c3nc4ccccc4s3)c2)cn1` (stereo not shown) [Example 151, 2-[4-(6-Amino-5-benzothiazol-2-ylpyridin-3-yl)-pyrazol-1-yl]-1-pyrrolidin-1-ylpropan-1-one]: the IC50 against RON (human) and at MET (human) was 100 to 1000 nM throughout.
Take `CC(C(=O)N1CCCCC1)n1cc(-c2cnc(N)c(-c3nc4ccccc4s3)c2)cn1` (stereo not shown) [Example 152, 2-[4-(6-Amino-5-benzothiazol-2-ylpyridin-3-yl)-pyrazol-1-yl]-1-piperidin-1-ylpropan-1-one]: the IC50 against RON (human) and on MET (human) was 1000 to 20000 nM throughout.
With `Nc1ncc(-c2cnn(CCC(=O)N3CCCC3)c2)cc1-c1nc2ccccc2s1` [Example 153, 3-[4-(6-Amino-5-benzothiazol-2-ylpyridin-3-yl)-pyrazol-1-yl]-1-pyrrolidin-1-ylpropan-1-one], the IC50 against RON (human) is over 20000 nM; against MET (human), 100 to 1000 nM.
As to `Nc1ncc(-c2cnn([C@@H]3CN[C@H](C(=O)O)C3)c2)cc1-c1nc2ccccc2s1` [Example 154, (2S,4S)-4-[4-(6-Amino-5-benzothiazol-2-ylpyridin-3-yl)-pyrazol-1-yl]-pyrrolidine-2-carboxylic acid], the IC50 against RON (human) is 100 to 1000 nM; against MET (human), at most 100 nM.
Consider `CN(C)C(=O)[C@@H]1C[C@H](n2cc(-c3cnc(N)c(-c4nc5ccccc5s4)c3)cn2)CN1` [Example 155, (2S,4S)-4-[4-(6-Amino-5-benzothiazol-2-ylpyridin-3-yl)-pyrazol-1-yl]-pyrrolidine-2-carboxylic acid dimethylamide], for which the IC50 at RON (human) is 100 to 1000 nM; against MET (human), at most 100 nM.
The corresponding values for `Nc1ncc(-c2cnn([C@@H]3CN[C@H](C(=O)N4CCCC4)C3)c2)cc1-c1nc2ccccc2s1` [Example 156, {(2S,4S)-4-[4-(6-Amino-5-benzothiazol-2-ylpyridin-3-yl)-pyrazol-1-yl]-pyrrolidin-2-yl}-pyrrolidin-1-ylmethanone] are at most 100 nM and at most 100 nM.
Turning to `Nc1ncc(-c2cnn([C@@H]3CN[C@H](C(=O)N4CCOCC4)C3)c2)cc1-c1nc2ccccc2s1` [Example 157, {(2S,4S)-4-[4-(6-Amino-5-benzothiazol-2-ylpyridin-3-yl)-pyrazol-1-yl]-pyrrolidin-2-yl}-morpholin-4-ylmethanone], the IC50 at RON (human) and against MET (human) was at most 100 nM each time.
Turning to `Nc1ncc(-c2cnn([C@@H]3CN[C@H](C(=O)N4CCCCC4)C3)c2)cc1-c1nc2ccccc2s1` [Example 158, {(2S,4S)-4-[4-(6-Amino-5-benzothiazol-2-ylpyridin-3-yl)-pyrazol-1-yl]-pyrrolidin-2-yl}-piperidin-1-ylmethanone], the half-inhibitory concentration (IC50) on RON (human) and at MET (human) was at most 100 nM in each case.
`Nc1ncc(-c2cnn([C@@H]3CN[C@H](C(=O)N4CCC(O)C4)C3)c2)cc1-c1nc2ccccc2s1` (stereo partly drawn) [Example 159, {(2S,4S)-4-[4-(6-Amino-5-benzothiazol-2-ylpyridin-3-yl)-pyrazol-1-yl]-pyrrolidin-2-yl}-(3-hydroxypyrrolidin-1-yl)-methanone]: the IC50 against RON (human) and against MET (human) was at most 100 nM throughout.
Take `Nc1ncc(-c2cnn([C@@H]3CN[C@H](C(=O)N4CCC4)C3)c2)cc1-c1nc2ccccc2s1` [Example 160, {(2S,4S)-4-[4-(6-Amino-5-benzothiazol-2-ylpyridin-3-yl)-pyrazol-1-yl]-pyrrolidin-2-yl}-azetidin-1-ylmethanone]: the IC50 on RON (human) is 100 to 1000 nM; against MET (human), at most 100 nM.
For the compound `Nc1ncc(-c2cnn(C3CCN(CC(=O)O)CC3)c2)cc1-c1nc2ccccc2s1` [Example 161, {4-[4-(6-Amino-5-benzothiazol-2-ylpyridin-3-yl)-pyrazol-1-yl]-piperidin-1-yl}-acetic acid], the IC50 against RON (human) is 100 to 1000 nM; on MET (human), at most 100 nM.
`NC(=O)CN1CCC(n2cc(-c3cnc(N)c(-c4nc5ccccc5s4)c3)cn2)CC1` [Example 162, 2-{4-[4-(6-Amino-5-benzothiazol-2-ylpyridin-3-yl)-pyrazol-1-yl]-piperidin-1-yl}-acetamide]: the IC50 was 100 to 1000 nM on RON (human) and at most 100 nM on MET (human).
For `CNC(=O)CN1CCC(n2cc(-c3cnc(N)c(-c4nc5ccccc5s4)c3)cn2)CC1` [Example 163, 2-{4-[4-(6-Amino-5-benzothiazol-2-ylpyridin-3-yl)-pyrazol-1-yl]-piperidin-1-yl}-N-methylacetamide], the IC50 against RON (human) and at MET (human) was 100 to 1000 nM each time.
Regarding `CN(C)C(=O)CN1CCC(n2cc(-c3cnc(N)c(-c4nc5ccccc5s4)c3)cn2)CC1` [Example 164, 2-{4-[4-(6-Amino-5-benzothiazol-2-ylpyridin-3-yl)-pyrazol-1-yl]-piperidin-1-yl}-N,N-dimethylacetamide], the IC50 at RON (human) and on MET (human) was 100 to 1000 nM each time.
On to `Nc1ncc(-c2cnn(C3CCN(CC(=O)N4CCC4)CC3)c2)cc1-c1nc2ccccc2s1` [Example 165, 2-{4-[4-(6-Amino-5-benzothiazol-2-ylpyridin-3-yl)-pyrazol-1-yl]-piperidin-1-yl}-1-azetidin-1-ylethanone], for which the IC50 on RON (human) and against MET (human) was 100 to 1000 nM each time.
With `Nc1ncc(-c2cnn(C3CCN(CC(=O)N4CCCC4)CC3)c2)cc1-c1nc2ccccc2s1` [Example 166, 2-{4-[4-(6-Amino-5-benzothiazol-2-ylpyridin-3-yl)-pyrazol-1-yl]-piperidin-1-yl}-1-pyrrolidin-1-ylethanone], the IC50 is 100 to 1000 nM on RON (human) and at most 100 nM against MET (human).
`Nc1ncc(-c2cnn(C3CCN(CC(=O)N4CCC(O)C4)CC3)c2)cc1-c1nc2ccccc2s1` (stereo not shown) [Example 167, 2-{4-[4-(6-Amino-5-benzothiazol-2-ylpyridin-3-yl)-pyrazol-1-yl]-piperidin-1-yl}-1-(3-hydroxypyrrolidin-1-yl)ethanone]: the IC50 is 100 to 1000 nM on RON (human) and at most 100 nM against MET (human).
Turning to `Nc1ncc(-c2cnn(C3CCN(CC(=O)N4CCCCC4)CC3)c2)cc1-c1nc2ccccc2s1` [Example 168, 2-{4-[4-(6-Amino-5-benzothiazol-2-ylpyridin-3-yl)-pyrazol-1-yl]-piperidin-1-yl}-1-piperidin-1-ylethanone], the IC50 at RON (human) and against MET (human) was 100 to 1000 nM throughout.
